From ChEMBL document CHEMBL4507264, “Data for DCP probe BAY-7598” (2021)

Columns and labels:
[1] = biological target: Phosphatidylinositol 4-phosphate 5-kinase type-1 alpha (Homo sapiens) (UniProt Q99755); conditions: Compound concentration 1000.0 nM
[2] = system: Tyrosine-protein kinase ABL1 (Homo sapiens), P00519 [T315I]; conditions: Compound concentration 1000.0 nM
[3] = biological target: Serine/threonine-protein kinase WNK4 (Homo sapiens) (UniProt Q96J92); conditions: Compound concentration 1000.0 nM
[4] = biological target: Rho-associated protein kinase 2 (Homo sapiens) (UniProt O75116); conditions: Compound concentration 1000.0 nM
[5] = biological target: Tyrosine-protein kinase ABL1 (Homo sapiens) (UniProt P00519); conditions: Compound concentration 1000.0 nM
[6] = biological target: G protein-coupled receptor kinase 4 (Homo sapiens) (UniProt P32298); conditions: Compound concentration 1000.0 nM
[7] = biological target: Serine/threonine-protein kinase Nek4 (Homo sapiens) (UniProt P51957); conditions: Compound concentration 1000.0 nM
[8] = biological target: RAC-alpha serine/threonine-protein kinase (Homo sapiens) (UniProt P31749); conditions: Compound concentration 1000.0 nM
[9] = biological target: Histamine H4 receptor (Homo sapiens) (UniProt Q9H3N8); conditions: Compound concentration 10.0 uM
[10] = system: Phosphatidylinositol 4,5-bisphosphate 3-kinase catalytic subunit alpha isoform (Homo sapiens), P42336 [E545K]; conditions: Compound concentration 1000.0 nM
[11] = biological target: Non-receptor tyrosine-protein kinase TYK2 (Homo sapiens) (UniProt P29597); conditions: Compound concentration 1000.0 nM
[12] = biological target: Rho-associated protein kinase 1 (Homo sapiens) (UniProt Q13464); conditions: Compound concentration 1000.0 nM
[13] = biological target: T1, D(4) dopamine receptor (Homo sapiens) (UniProt P21917); conditions: Compound concentration 10.0 uM
T1 sequence (whole entry): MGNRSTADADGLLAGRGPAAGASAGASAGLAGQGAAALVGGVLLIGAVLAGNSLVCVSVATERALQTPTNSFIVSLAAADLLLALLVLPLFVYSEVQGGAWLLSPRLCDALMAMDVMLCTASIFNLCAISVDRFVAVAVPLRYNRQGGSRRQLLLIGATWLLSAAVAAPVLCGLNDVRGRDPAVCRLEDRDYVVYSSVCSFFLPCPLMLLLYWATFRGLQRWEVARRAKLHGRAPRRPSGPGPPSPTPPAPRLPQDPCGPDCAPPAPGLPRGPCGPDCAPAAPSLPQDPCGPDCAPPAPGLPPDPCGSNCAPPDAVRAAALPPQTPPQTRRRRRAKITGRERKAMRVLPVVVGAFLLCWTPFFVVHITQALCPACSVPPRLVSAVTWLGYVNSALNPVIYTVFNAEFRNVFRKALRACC

[14] = biological target: Serine/threonine-protein kinase LATS2 (Homo sapiens) (UniProt Q9NRM7); conditions: Compound concentration 1000.0 nM
[15] = biological target: Megakaryocyte-associated tyrosine-protein kinase (Homo sapiens) (UniProt P42679); conditions: Compound concentration 1000.0 nM
[16] = biological target: MAP kinase-activated protein kinase 2 (Homo sapiens) (UniProt P49137); conditions: Compound concentration 1000.0 nM
[17] = system: Receptor-type tyrosine-protein kinase FLT3 (Homo sapiens), P36888 [D835V]; conditions: Compound concentration 1000.0 nM
[18] = biological target: Serine/threonine-protein kinase PLK4 (Homo sapiens) (UniProt O00444); conditions: Compound concentration 1000.0 nM
[19] = biological target: Dual specificity mitogen-activated protein kinase kinase 4 (Homo sapiens) (UniProt P45985); conditions: Compound concentration 1000.0 nM
[20] = biological target: High affinity nerve growth factor receptor (Homo sapiens) (UniProt P04629); conditions: Compound concentration 1000.0 nM
[21] = biological target: Serine/threonine-protein kinase DCLK3 (Homo sapiens) (UniProt Q9C098); conditions: Compound concentration 1000.0 nM
[22] = biological target: Serine/threonine-protein kinase RIO3 (Homo sapiens) (UniProt O14730); conditions: Compound concentration 1000.0 nM
[23] = biological target: Macrophage colony-stimulating factor 1 receptor (Homo sapiens) (UniProt P07333); conditions: Compound concentration 1000.0 nM
[24] = system: Hepatocyte growth factor receptor (Homo sapiens), P08581 [M1250T]; conditions: Compound concentration 1000.0 nM
[25] = biological target: Cytoplasmic tyrosine-protein kinase BMX (Homo sapiens) (UniProt P51813); conditions: Compound concentration 1000.0 nM
[26] = biological target: Mitogen-activated protein kinase kinase kinase 11 (Homo sapiens) (UniProt Q16584); conditions: Compound concentration 1000.0 nM
[27] = system: Mast/stem cell growth factor receptor Kit (Homo sapiens), P10721 [V559D,V654A]; conditions: Compound concentration 1000.0 nM
[28] = biological target: Mast/stem cell growth factor receptor Kit (Homo sapiens) (UniProt P10721); conditions: Compound concentration 1000.0 nM
[29] = biological target: Fibroblast growth factor receptor 3 (Homo sapiens) (UniProt P22607); conditions: Compound concentration 1000.0 nM
[30] = biological target: D(1A) dopamine receptor (Homo sapiens) (UniProt P21728); conditions: Compound concentration 10.0 uM
[31] = biological target: Citron Rho-interacting kinase (Homo sapiens) (UniProt O14578); conditions: Compound concentration 1000.0 nM
[32] = biological target: Serine/threonine-protein kinase 32A (Homo sapiens) (UniProt Q8WU08); conditions: Compound concentration 1000.0 nM
[33] = biological target: Tyrosine-protein kinase Srms (Homo sapiens) (UniProt Q9H3Y6); conditions: Compound concentration 1000.0 nM
[34] = biological target: Mitogen-activated protein kinase kinase kinase 13 (Homo sapiens) (UniProt O43283); conditions: Compound concentration 1000.0 nM
[35] = biological target: Serine/threonine-protein kinase Nek7 (Homo sapiens) (UniProt Q8TDX7); conditions: Compound concentration 1000.0 nM
[36] = biological target: Phosphatidylinositol 3-kinase catalytic subunit type 3 (Homo sapiens) (UniProt Q8NEB9); conditions: Compound concentration 1000.0 nM
[37] = biological target: Tyrosine-protein kinase JAK2 (Homo sapiens) (UniProt O60674); conditions: Compound concentration 1000.0 nM
[38] = biological target: Dual specificity mitogen-activated protein kinase kinase 7 (Homo sapiens) (UniProt O14733); conditions: Compound concentration 1000.0 nM
[39] = biological target: Mitogen-activated protein kinase kinase kinase 15 (Homo sapiens) (UniProt Q6ZN16); conditions: Compound concentration 1000.0 nM
Chain of Mitogen-activated protein kinase kinase kinase 15 (Homo sapiens) (Q6ZN16 whole entry): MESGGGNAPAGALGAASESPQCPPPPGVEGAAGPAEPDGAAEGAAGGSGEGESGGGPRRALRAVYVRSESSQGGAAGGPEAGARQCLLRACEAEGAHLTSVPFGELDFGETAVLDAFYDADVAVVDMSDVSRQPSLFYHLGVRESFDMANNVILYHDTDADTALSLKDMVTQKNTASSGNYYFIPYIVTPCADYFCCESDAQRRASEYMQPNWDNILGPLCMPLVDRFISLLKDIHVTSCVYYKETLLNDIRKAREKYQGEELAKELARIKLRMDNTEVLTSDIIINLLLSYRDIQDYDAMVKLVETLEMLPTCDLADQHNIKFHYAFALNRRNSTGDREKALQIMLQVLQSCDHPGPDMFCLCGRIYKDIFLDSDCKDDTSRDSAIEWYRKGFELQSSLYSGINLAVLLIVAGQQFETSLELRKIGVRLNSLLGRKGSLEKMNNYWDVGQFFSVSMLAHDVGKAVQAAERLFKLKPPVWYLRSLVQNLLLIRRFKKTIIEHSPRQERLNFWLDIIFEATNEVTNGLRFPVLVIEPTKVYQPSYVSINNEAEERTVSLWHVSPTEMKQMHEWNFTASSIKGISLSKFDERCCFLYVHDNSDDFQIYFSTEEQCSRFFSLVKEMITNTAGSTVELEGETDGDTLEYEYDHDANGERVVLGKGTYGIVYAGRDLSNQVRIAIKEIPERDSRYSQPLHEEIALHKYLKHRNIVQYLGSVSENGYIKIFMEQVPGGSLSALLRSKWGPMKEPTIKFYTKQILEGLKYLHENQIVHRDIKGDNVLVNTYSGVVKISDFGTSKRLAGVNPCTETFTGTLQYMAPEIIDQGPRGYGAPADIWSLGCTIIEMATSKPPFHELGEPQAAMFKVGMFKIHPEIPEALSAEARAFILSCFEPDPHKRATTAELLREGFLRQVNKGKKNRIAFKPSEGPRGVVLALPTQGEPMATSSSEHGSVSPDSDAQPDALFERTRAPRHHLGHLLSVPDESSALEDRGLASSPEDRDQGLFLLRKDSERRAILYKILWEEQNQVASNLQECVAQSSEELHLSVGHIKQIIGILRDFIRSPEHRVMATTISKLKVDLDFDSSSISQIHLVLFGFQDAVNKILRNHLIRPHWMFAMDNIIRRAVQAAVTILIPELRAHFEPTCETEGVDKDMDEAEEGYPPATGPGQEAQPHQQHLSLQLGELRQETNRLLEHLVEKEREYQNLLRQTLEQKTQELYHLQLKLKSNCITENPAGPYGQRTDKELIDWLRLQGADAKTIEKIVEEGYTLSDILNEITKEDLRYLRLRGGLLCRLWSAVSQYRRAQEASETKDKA

Chain of Mast/stem cell growth factor receptor Kit (Homo sapiens), P10721 [V559D,V654A] (P10721 whole entry V559D/V654A): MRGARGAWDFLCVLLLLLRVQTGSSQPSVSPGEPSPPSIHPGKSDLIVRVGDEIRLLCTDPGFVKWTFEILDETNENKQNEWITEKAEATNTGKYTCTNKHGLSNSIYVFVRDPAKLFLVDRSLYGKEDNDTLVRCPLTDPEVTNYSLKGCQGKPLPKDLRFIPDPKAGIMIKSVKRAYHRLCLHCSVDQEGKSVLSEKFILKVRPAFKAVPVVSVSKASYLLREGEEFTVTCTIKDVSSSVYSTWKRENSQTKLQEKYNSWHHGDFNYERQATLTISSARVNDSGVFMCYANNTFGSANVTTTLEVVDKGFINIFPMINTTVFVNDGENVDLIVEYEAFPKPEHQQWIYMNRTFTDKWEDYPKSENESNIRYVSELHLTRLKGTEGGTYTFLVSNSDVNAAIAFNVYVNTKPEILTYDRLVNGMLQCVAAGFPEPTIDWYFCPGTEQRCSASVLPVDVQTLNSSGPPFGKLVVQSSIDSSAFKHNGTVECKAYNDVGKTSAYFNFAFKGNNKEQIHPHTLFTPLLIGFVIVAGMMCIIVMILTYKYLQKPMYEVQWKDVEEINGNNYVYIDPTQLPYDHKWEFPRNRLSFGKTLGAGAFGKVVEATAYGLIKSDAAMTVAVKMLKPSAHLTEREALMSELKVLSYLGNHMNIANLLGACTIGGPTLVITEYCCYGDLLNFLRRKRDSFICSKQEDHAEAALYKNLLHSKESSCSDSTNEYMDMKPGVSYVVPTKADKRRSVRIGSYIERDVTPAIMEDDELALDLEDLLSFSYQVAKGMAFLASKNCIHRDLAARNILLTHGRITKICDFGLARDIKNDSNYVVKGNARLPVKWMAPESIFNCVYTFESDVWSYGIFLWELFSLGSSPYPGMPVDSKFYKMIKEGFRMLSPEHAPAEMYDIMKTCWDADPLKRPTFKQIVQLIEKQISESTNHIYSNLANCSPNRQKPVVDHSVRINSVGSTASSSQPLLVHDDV
Chain of Non-receptor tyrosine-protein kinase TYK2 (Homo sapiens) (P29597 whole entry): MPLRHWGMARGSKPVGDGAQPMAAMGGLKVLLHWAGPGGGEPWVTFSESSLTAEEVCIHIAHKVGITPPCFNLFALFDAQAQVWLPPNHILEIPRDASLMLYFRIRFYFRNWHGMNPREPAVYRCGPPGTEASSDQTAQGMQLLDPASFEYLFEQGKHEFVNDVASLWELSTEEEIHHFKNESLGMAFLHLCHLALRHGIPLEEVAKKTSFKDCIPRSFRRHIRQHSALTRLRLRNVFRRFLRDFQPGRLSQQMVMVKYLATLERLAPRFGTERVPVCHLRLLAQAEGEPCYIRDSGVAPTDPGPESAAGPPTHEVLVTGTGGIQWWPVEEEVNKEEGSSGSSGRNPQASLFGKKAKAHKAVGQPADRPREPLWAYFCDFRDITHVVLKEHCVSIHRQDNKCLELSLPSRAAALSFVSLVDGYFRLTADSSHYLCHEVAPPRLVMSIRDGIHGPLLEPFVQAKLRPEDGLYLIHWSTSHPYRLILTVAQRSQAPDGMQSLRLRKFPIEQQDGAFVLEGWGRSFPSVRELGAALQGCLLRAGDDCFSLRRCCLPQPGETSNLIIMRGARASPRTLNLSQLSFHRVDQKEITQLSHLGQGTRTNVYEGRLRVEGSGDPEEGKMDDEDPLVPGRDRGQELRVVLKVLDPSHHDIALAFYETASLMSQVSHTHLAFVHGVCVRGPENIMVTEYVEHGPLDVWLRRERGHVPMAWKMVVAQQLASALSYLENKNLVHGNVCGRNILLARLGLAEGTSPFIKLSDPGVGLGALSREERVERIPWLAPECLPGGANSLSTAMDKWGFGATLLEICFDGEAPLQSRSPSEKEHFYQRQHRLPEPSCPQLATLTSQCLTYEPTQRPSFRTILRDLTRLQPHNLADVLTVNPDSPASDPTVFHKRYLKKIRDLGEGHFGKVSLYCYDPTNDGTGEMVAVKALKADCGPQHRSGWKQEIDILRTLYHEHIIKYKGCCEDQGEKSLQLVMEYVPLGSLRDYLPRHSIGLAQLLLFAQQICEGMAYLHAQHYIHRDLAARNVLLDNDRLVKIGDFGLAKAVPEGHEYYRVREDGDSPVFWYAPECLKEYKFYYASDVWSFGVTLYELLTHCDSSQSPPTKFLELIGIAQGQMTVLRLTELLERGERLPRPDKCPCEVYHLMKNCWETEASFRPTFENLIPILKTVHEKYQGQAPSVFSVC
Chain of Rho-associated protein kinase 1 (Homo sapiens) (Q13464 2-1354 limits assumed): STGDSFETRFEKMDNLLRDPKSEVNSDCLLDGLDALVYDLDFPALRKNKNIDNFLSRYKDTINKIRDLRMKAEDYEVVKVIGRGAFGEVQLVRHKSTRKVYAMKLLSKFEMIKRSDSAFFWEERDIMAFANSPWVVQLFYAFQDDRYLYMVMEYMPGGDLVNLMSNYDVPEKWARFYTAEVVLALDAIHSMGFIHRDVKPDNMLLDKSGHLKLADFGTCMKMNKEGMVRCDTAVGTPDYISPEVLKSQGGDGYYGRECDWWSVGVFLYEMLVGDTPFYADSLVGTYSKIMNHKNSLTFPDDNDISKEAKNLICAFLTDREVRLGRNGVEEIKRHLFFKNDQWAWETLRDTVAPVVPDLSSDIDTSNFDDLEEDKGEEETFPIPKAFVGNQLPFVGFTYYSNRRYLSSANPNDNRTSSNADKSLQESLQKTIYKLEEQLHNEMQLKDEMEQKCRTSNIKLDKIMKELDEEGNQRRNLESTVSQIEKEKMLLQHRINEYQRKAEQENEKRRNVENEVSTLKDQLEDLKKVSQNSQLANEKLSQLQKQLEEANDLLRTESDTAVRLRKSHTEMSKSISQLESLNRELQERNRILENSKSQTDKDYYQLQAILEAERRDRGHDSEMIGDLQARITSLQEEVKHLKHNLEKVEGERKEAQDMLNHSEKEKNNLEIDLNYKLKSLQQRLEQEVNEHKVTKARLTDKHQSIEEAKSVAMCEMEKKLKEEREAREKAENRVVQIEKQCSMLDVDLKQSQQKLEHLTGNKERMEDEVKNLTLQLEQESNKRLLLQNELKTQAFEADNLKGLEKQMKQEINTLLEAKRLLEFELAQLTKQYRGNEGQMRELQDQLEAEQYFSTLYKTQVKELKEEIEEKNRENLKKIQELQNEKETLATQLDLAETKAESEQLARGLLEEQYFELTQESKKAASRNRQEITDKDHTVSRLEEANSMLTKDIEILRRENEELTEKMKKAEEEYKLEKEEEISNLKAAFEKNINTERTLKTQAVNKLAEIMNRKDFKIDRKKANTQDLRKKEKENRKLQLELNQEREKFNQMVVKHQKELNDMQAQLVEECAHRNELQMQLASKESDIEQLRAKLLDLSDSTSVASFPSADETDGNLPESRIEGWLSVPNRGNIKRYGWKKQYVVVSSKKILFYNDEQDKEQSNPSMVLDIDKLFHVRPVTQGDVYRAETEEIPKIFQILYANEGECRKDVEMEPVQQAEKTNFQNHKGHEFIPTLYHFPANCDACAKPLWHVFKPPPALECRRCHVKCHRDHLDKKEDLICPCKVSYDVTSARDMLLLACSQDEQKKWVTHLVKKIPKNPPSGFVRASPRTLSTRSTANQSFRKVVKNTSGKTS
Chain of Mast/stem cell growth factor receptor Kit (Homo sapiens) (P10721 whole entry): as the sequence (P10721 whole entry V559D/V654A) above, with D559V, A654V counted along it

With O=C(O)[C@@H]1[C@@H](Cn2nnc3ccccc3c2=O)CC[C@H]1C(=O)c1ccc(OCCC2CCOCC2)cc1 [BAY-694] the residual activity [1] was 94%, the residual activity [2] was 100% and the residual activity [3] was 75%. It also gave a residual activity [4] of 100%, a residual activity [5] of 95% and a residual activity [6] of 100%. For the same molecule, the residual activity [7] was 56%, the residual activity [8] was 75% and the inhibition [9] was 3.39%. The residual activity [10] was 80%, the residual activity [11] was 58% and the residual activity [12] was 84%. The inhibition [13] was 21.9%, the residual activity [14] was 100% and the residual activity [15] was 95%. It also gave a residual activity [16] of 100%, a residual activity [17] of 93% and a residual activity [18] of 83%. The residual activity [19] was 100%, the residual activity [20] was 86% and the residual activity [21] was 100%. The residual activity [22] was 100%, the residual activity [23] was 94% and the residual activity [24] was 100%. The residual activity [25] was 100%, the residual activity [26] was 92% and the residual activity [27] was 94%. For the same molecule, the residual activity [28] was 100%, the residual activity [29] was 100% and the inhibition [30] was 4.76%. It also gave a residual activity [31] of 92%, a residual activity [32] of 92% and a residual activity [33] of 100%. For the same molecule, the residual activity [34] was 70%, the residual activity [35] was 100% and the residual activity [36] was 96%. For the same molecule, the residual activity [37] was 74%, the residual activity [38] was 89% and the residual activity [39] was 54%.
O=C(O)[C@H]1[C@H](Cn2nnc3ccccc3c2=O)CC[C@@H]1C(=O)c1ccc(OCCC2CCOCC2)cc1 [BAY-7598] showed a residual activity [1] of 88%, a residual activity [2] of 79% and a residual activity [3] of 91%. For the same molecule, the residual activity [4] was 80%, the residual activity [5] was 80% and the residual activity [6] was 82%. It also gave a residual activity [7] of 84%, a residual activity [8] of 83% and an inhibition [9] of 1.99%. It also gave a residual activity [10] of 72%, a residual activity [11] of 41% and a residual activity [12] of 87%. For the same molecule, the inhibition [13] was 12.5%, the residual activity [14] was 100% and the residual activity [15] was 83%. The residual activity [16] was 89%, the residual activity [17] was 92% and the residual activity [18] was 97%. The residual activity [19] was 97%, the residual activity [20] was 88% and the residual activity [21] was 98%. For the same molecule, the residual activity [22] was 79%, the residual activity [23] was 100% and the residual activity [24] was 100%. The residual activity [25] was 92%, the residual activity [26] was 92% and the residual activity [27] was 100%. It also gave a residual activity [28] of 65%, a residual activity [29] of 100% and an inhibition [30] of 1.16%. It also gave a residual activity [31] of 77%, a residual activity [32] of 88% and a residual activity [33] of 100%. For the same molecule, the residual activity [34] was 96%, the residual activity [35] was 100% and the residual activity [36] was 93%. It also gave a residual activity [37] of 75%, a residual activity [38] of 96% and a residual activity [39] of 64%.
